Source: ChEMBL document CHEMBL4431305, “Chermesins A-D: Meroterpenoids with a Drimane-Type Spirosesquiterpene Skeleton from the Marine Algal-Derived Endophytic Fungus Penicillium chermesinum EN-480” (J Nat Prod, 2016)
≈ marks a conversion by molar mass, not a printed value. Calls of active or inactive are those of the source. The rule behind the calls is not given here.

How the values were obtained:
[1] = system: Vibrio alginolyticus; experiment: Antimicrobial activity against Vibrio alginolyticus by microplate assay; type: functional
[2] = system: Micrococcus luteus; experiment: Antimicrobial activity against Micrococcus luteus by microplate assay; type: functional
[3] = system: Escherichia coli; experiment: Antimicrobial activity against Escherichia coli by microplate assay; type: functional
[4] = system: Candida albicans; experiment: Antimicrobial activity against Candida albicans by microplate assay; type: functional
[5] = Toxicity in Artemia salina assessed as lethality at 100 ug/ml measured after 6 to 24 hrs; type: organism-based; conditions: in vivo

| Structure (SMILES) | MIC [1] | MIC [2] | MIC [3] | MIC [4] | mortality at 100 ug/ml [5] [%] |
| --- | --- | --- | --- | --- | --- |
| O=C(N[C@H](CO)[C@H](O)c1ccc([N+](=O)[O-])cc1)C(Cl)Cl [CHLORAMPHENICOL] | 4 mg/L (≈ 12.4 µM) | 2 mg/L (≈ 6.19 µM) | 2 mg/L (≈ 6.19 µM) |  |  |
| CC1=CC(=O)C(C)=C2O[C@@]3(C[C@]12C)[C@@H](C)CC[C@H]1C(C)(C)C(=O)CC[C@@]13C | 64 mg/L (≈ 173 µM) | 8 mg/L (≈ 21.6 µM) | 64 mg/L (≈ 173 µM) | 64 mg/L (≈ 173 µM) | < 60 |
| C[C@@H]1[C@H](O)[C@@H](C)/C=C/C=C/C=C/C=C/C=C/C=C/C=C/[C@H](O[C@@H]2O[C@H](C)[C@@H](O)[C@H](N)[C@@H]2O)C[C@@H]2O[C@](O)(C[C@@H](O)C[C@@H](O)[C@H](O)CC[C@@H](O)C[C@@H](O)CC(=O)O[C@H]1C)C[C@H](O)[C@H]2C(=O)O [AMPHOTERICIN B] |  |  |  | 2 mg/L (≈ 2.16 µM) |  |
| COC(=O)[C@@H]1C(=O)C(C)=C2O[C@@]3(C[C@]2(C)[C@H]1C)[C@@H](C)[C@@H](O)C[C@H]1C(C)(C)[C@@H](O)CC[C@@]13C | inactive | inactive | inactive | inactive | < 60 |
| CC1=CC(=O)C(C)=C2O[C@@]3(C[C@]12C)[C@@H](C)CC[C@H]1C(C)(C)[C@@H](O)CC[C@@]13C | 32 mg/L (≈ 85.9 µM) | 8 mg/L (≈ 21.5 µM) | 32 mg/L (≈ 85.9 µM) | 32 mg/L (≈ 85.9 µM) | < 60 |
| CC1=C2O[C@@]3(C[C@]2(C)C(C)=C(C(=O)O)C1=O)[C@@H](C)CC[C@H]1C(C)(C)C(=O)CC[C@@]13C | inactive | inactive | 64 mg/L (≈ 154 µM) | inactive | < 60 |
